The text below walks through data of patent US6037447A, “Glycopeptide compounds” (priority 1998, dated 2000).

The test system of experiment [1] is Staphylococcus aureus S13E. The format is cell-based. The protocol: (§1) The minimal inhibitory concentrations (MICs) were determined using a standard broth micro-dilution assay.
The subject of experiment [2] is Enterococcus faecalis 2041. Description: Standard broth micro-dilution MIC, Enterococcus faecalis 2041. Format: cell-based. The procedure: as §1
Background: In broth dilution the organism is exposed to a series of concentrations in liquid medium.

In another experiment the test system is Enterococcus faecium 180. Description: Standard broth micro-dilution MIC, Enterococcus faecium 180. The format is cell-based. The procedure:
as §1

Experiment [3] relates to Staphylococcus aureus X778. Nature of the experiment: Standard broth micro-dilution MIC, Staphylococcus aureus X778. The format is cell-based. The procedure:
as §1

The test system of experiment [4] is Staphylococcus aureus SA119913. Nature of the experiment: Standard broth micro-dilution MIC, Staphylococcus aureus SA119913. Format: cell-based. The protocol: as §1
Experiment [5] has as its system Staphylococcus aureus 489. Nature of the experiment: Standard broth micro-dilution MIC, Staphylococcus aureus 489. Format: cell-based. The procedure: as §1
Experiment [6] relates to Staphylococcus aureus SA1199. Description: Standard broth micro-dilution MIC, Staphylococcus aureus SA1199. Format: cell-based. The procedure: as §1
Experiment [7] relates to Enterococcus faecium 180-1. Description: Standard broth micro-dilution MIC, Enterococcus faecium 180-1. Format: cell-based. The protocol: as §1
In experiment [8] the test system is Staphylococcus haemolyticus 415. Nature of the experiment: Standard broth micro-dilution MIC, Staphylococcus haemolyticus 415. Format: cell-based. The procedure: as §1
For experiment [9], the system named is Staphylococcus aureus 491. Nature of the experiment: Standard broth micro-dilution MIC, Staphylococcus aureus 491. The format is cell-based. The procedure: as §1
The subject of experiment [10] is Staphylococcus aureus 447. Nature of the experiment: Standard broth micro-dilution MIC, Staphylococcus aureus 447. The format is cell-based. The procedure:
as §1

In experiment [11] the test system is Enterococcus faecalis 276. Nature of the experiment: Standard broth micro-dilution MIC, Enterococcus faecalis 276. The format is cell-based. The protocol: as §1
Experiment [12] relates to Staphylococcus aureus SA1199A. Nature of the experiment: Standard broth micro-dilution MIC, Staphylococcus aureus SA1199A. The format is cell-based. The protocol: as §1
Experiment [13] relates to Enterococcus gallinarum 245. Nature of the experiment: Standard broth micro-dilution MIC, Enterococcus gallinarum 245. The format is cell-based. The protocol:
as §1

Experiment [14] concerns Staphylococcus aureus 446. Description: Standard broth micro-dilution MIC, Staphylococcus aureus 446. The format is cell-based. The procedure: as §1
In experiment [15] the test system is vancomycin-sensitive enterococci. Description: In Vitro Activity Against Enterococci, vancomycin-sensitive strains. The format is cell-based, Enterococcus faecium and Enterococcus faecalis. As to conditions: representative vancomycin-sensitive enterococci (Enterococcus faecium and Enterococcus faecalis). The procedure: as §1
In experiment [16] the test system is Streptococcus pyogenes C203. Description: Standard broth micro-dilution MIC, Streptococcus pyogenes C203. Format: cell-based. The protocol:
as §1

The subject of experiment [17] is Haemophilus influenzae RD. Nature of the experiment: Standard broth micro-dilution MIC, Haemophilus influenzae RD. Format: cell-based. The procedure:
as §1

Experiment [18] relates to Streptococcus pneumoniae P1. Description: Standard broth micro-dilution MIC, Streptococcus pneumoniae P1. The format is cell-based. The procedure: as §1
In experiment [19] the test system is Staphylococcus haemolyticus 105. Nature of the experiment: Standard broth micro-dilution MIC, Staphylococcus haemolyticus 105. Format: cell-based. The procedure: as §1
A further experiment deals with Escherichia coli EC14. Nature of the experiment: Standard broth micro-dilution MIC, Escherichia coli EC14. The format is cell-based. The protocol:
as §1

Experiment [20] concerns Staphylococcus aureus X400. Description: Standard broth micro-dilution MIC, Staphylococcus aureus X400. The format is cell-based. The procedure:
as §1

The test system of experiment [21] is Staphylococcus epidermidis 270. Nature of the experiment: Standard broth micro-dilution MIC, Staphylococcus epidermidis 270. The format is cell-based. The procedure:
as §1

Experiment [22] has as its system vancomycin-resistant enterococci. Nature of the experiment: In Vitro Activity Against Enterococci, vancomycin-resistant strains. The format is cell-based. As to conditions: representative vancomycin-resistant enterococci (Enterococcus faecium and Enterococcus faecalis). The procedure: as §1

Bounds are passed on as bounds.

In the case of “1,3-propanediyl-bis-[(oxy-4,1-phenylene)-methylene]-bis-[A82846B] [Compound 14]”, the MIC amounted to 2 µg/mL in experiment [1]; 0.25 µg/mL in experiment [2]; 0.25 µg/mL in the experiment on Enterococcus faecium 180; 1 µg/mL in [3]; 2 µg/mL in experiment [4]; 1 µg/mL in experiment [5]. Moreover, the MIC in experiment [6] is 4 µg/mL; in [7], ≤ 0.06 µg/mL; in experiment [8] it was 16 µg/mL; in experiment [9], 0.25 µg/mL; in experiment [10] it was 16 µg/mL; in experiment [11] it was 0.5 µg/mL. Also, the MIC in experiment [12] is 0.125 µg/mL; in experiment [13], 0.06 µg/mL; in [14], 4 µg/mL; in experiment [16], 0.06 µg/mL; in [17] it was > 64 µg/mL; in experiment [18], 0.06 µg/mL. The MIC in experiment [19] is 4 µg/mL; with Escherichia coli EC14 it was > 64 µg/mL; in experiment [20], 2 µg/mL; in [21], 8 µg/mL. Moreover, in experiment [15], the “mean geometric MIC, Vancomycin Sensitive Strains” value was 1.0 µg/mL. Further, in [22], the “mean geometric MIC, Vancomycin Resistant Strains” value is > 64 µg/mL.

Consider “N^4 -(4-(3-(p-formylphenoxy)-n-propyloxy)benzyl)A82846B [Compound 46]”, for which the MIC in [1] is 0.5 µg/mL; in experiment [2], ≤ 0.06 µg/mL; in the experiment on Enterococcus faecium 180, 0.5 µg/mL; in experiment [3], 0.5 µg/mL; in experiment [4] it was 1 µg/mL; in [5] it was 0.5 µg/mL. For the same substance, the MIC is 1 µg/mL in [6]; ≤ 0.06 µg/mL in experiment [7]; 4 µg/mL in [8]; 0.5 µg/mL in [9]; 2 µg/mL in [10]; 1 µg/mL in experiment [11]. Moreover, the MIC is 0.125 µg/mL in experiment [12]; 4 µg/mL in experiment [13]; 1 µg/mL in experiment [14]; ≤ 0.06 µg/mL in experiment [16]; ≤ 0.06 µg/mL in [18]; 2 µg/mL in [19]. The values for the MIC (in the experiment with Escherichia coli EC14; in experiment [20]; in experiment [21]) were > 64 µg/mL, 1 µg/mL and 2 µg/mL, respectively. Also, the “mean geometric MIC, Vancomycin Sensitive Strains” value in [15] is 0.17 µg/mL. For the same substance, the “mean geometric MIC, Vancomycin Resistant Strains” value in experiment [22] was 4.8 µg/mL.

As for “N^4 -(4-(12-(p-formylphenoxy)-n-dodecyloxy)benzyl)vancomycin [Compound 42]”, the MIC stood at 4 µg/mL in experiment [1]; 2 µg/mL in experiment [2]; 0.5 µg/mL in the experiment with Enterococcus faecium 180; 1 µg/mL in experiment [3]; 4 µg/mL in [4]; 2 µg/mL in [5]. Moreover, the MIC stood at 2 µg/mL in experiment [6]; 1 µg/mL in experiment [7]; 8 µg/mL in experiment [8]; 2 µg/mL in experiment [9]; 4 µg/mL in experiment [10]; 4 µg/mL in [11]. In addition, the MIC in experiment [12] amounted to 1 µg/mL; in [13] it was 1 µg/mL; in [14], 2 µg/mL; in experiment [16] it was 0.25 µg/mL; in experiment [18], 1 µg/mL; in experiment [19] it was 2 µg/mL. Further, the values for the MIC (against Escherichia coli EC14; in [20]; in experiment [21]) were > 64 µg/mL, 2 µg/mL and 4 µg/mL, respectively. Moreover, in experiment [15], the “mean geometric MIC, Vancomycin Sensitive Strains” value was found to be 1.1 µg/mL. The “mean geometric MIC, Vancomycin Resistant Strains” value in [22] amounted to 4.5 µg/mL.
